Laboratory results from US20160318897A1, “AZOLE COMPOUNDS CARRYING AN IMINE-DERIVED SUBSTITUENT” (BASF SE, priority 2013, published 2016).

Experiments:
Assay type in all cases: in vivo
Dichromothrips corbetti = assay: Orchid thrips (Dichromothrips corbetti) floral-immersion test; conditions: adult thrips, 72 hours after treatment, read-out: mortality in comparison with untreated controls
Method: B.2 Orchid Thrips (Dichromothrips Corbetti)
Dichromothrips corbetti adults used for bioassay were obtained from a colony maintained continuously under laboratory conditions. For testing purposes, the test compound is diluted in a 1:1 mixture of acetone:water (vol:vol), plus Kinetic HV at a rate of 0.01% v/v.
Thrips potency of each compound was evaluated by using a floral-immersion technique. All petals of individual, intact orchid flowers were dipped into treatment solution and allowed to dry in Petri dishes. Treated petals were placed into individual resealable plastic along with about 20 adult thrips. All test arenas were held under continuous light and a temperature of about 28° C. for duration of the assay. After 3 days, the numbers of live thrips were counted on each petal. The percent mortality was recorded 72 hours after treatment.

Heliothis virescens = assay: Tobacco budworm (Heliothis virescens) microtiter plate insect diet test; conditions: 120 h, egg and larval mortality after 5 days, read-out: mortality in comparison with untreated controls
Method: B.5 Tobacco Budworm (Heliothis virescens)
For evaluating control of tobacco budworm (Heliothis virescens) the test unit consisted of 96-well-microtiter plates containing an insect diet and 15-25 H. virescens eggs.
The compounds were formulated using a solution containing 75% v/v water and 25% v/v DMSO. Different concentrations of formulated compounds were sprayed onto the insect diet at 10 μl, using a custom built micro atomizer, at two replications.
(§1) After application, microtiter plates were incubated at about 28±1° C. and about 80±5% relative humidity for 5 days. Egg and larval mortality was then visually assessed.

Nephotettix virescens = assay: Rice green leafhopper (Nephotettix virescens) spray test on rice seedlings; conditions: adults, after 72 hours, read-out: mortality in comparison with untreated controls
Method: B.7 Rice Green Leafhopper (Nephotettix virescens)
Rice seedlings were cleaned and washed 24 hours before spraying. The active compounds were formulated in 1:1 acetone:water (vol:vol), and 0.01% vol/vol surfactant (Kinetic HV) was added. Potted rice seedlings were sprayed with 5-6 ml test solution, air dried, covered with Mylar cages cages and inoculated with 10 adults. Treated rice plants were kept at about 28-29° C. and relative humidity of about 50-60%. Percent mortality was recorded after 72 hours.

Aphis craccivora = assay: Cowpea aphid (Aphis craccivora) spray test on potted cowpea plants; conditions: after 72 hours, read-out: mortality in comparison with untreated controls
Method: B.3 Cowpea Aphid (Aphis Craccivora)
The active compound is dissolved at the desired concentration in a mixture of 1:1 (vol:vol) distilled water:acetone. Surfactant (Kinetic HV) is added at a rate of 0.01% (vol/vol). The test solution is prepared at the day of use.
Potted cowpea plants were colonized with approximately 50-100 aphids of various stages by manually transferring a leaf tissue cut from infested plant 24 hours before application. Plants were sprayed after the pest population has been recorded. Treated plants are maintained on light carts at about 28° C. Percent mortality was assessed after 72 hours.

Plutella xylostella = assay: Diamond back moth (Plutella xylostella) cabbage leaf dip test; conditions: foliar, 3rd instar larvae, 72 hours after treatment, read-out: mortality in comparison with untreated controls
Method: B.8 Diamond Back Moth (Plutella xylostella)
The active compound is dissolved at the desired concentration in a mixture of 1:1 (vol:vol) distilled water:aceteone. Surfactant (Kinetic HV) is added at a rate of 0.01% (vol/vol). The test solution is prepared at the day of use.
Leaves of cabbage were dipped in test solution and air-dried. Treated leaves were placed in petri dishes lined with moist filter paper and inoculated with ten 3rd instar larvae. Mortality was recorded 72 hours after treatment. Feeding damages were also recorded using a scale of 0-100%.

Anthonomus grandis = assay: Boll weevil (Anthonomus grandis) microtiter plate insect diet test; conditions: 120 h, egg and larval mortality after 5 days, read-out: mortality in comparison with untreated controls
Method: B.1 Boll Weevil (Anthonomus grandis)
For evaluating control of boll weevil (Anthonomus grandis) the test unit consisted of 96-well-microtiter plates containing an insect diet and 5-10 A. grandis eggs.
(§2) The compounds were formulated using a solution containing 75% v/v water and 25% v/v DMSO. Different concentrations of formulated compounds were sprayed onto the insect diet at 5 μl, using a custom built micro atomizer, at two replications.
After application, microtiter plates were incubated at about 25±1° C. and about 75±5% relative humidity for 5 days. Egg and larval mortality was then visually assessed.

Spodoptera eridania = assay: Southern armyworm (Spodoptera eridania), 2nd instar larvae, foliar spray on lima bean; conditions: 96 h, 4 days after treatment, read-out: mortality in comparison with untreated controls
Method: B.9 Southern Armyworm (Spodoptera eridania), 2nd Instar Larvae
The active compounds were formulated by a Tecan liquid handler in 100% cyclohexanone as a 10,000 ppm solution supplied in tubes. The 10,000 ppm solution was serially diluted in 100% cyclohexanone to make interim solutions. These served as stock solutions for which final dilutions were made by the Tecan in 50% acetone:50% water (v/v) into 5 or 10 ml glass vials. A nonionic surfactant (Kinetic®) was included in the solution at a volume of 0.01% (v/v). The vials were then inserted into an automated electrostatic sprayer equipped with an atomizing nozzle for application to plants/insects.
Lima bean plants (variety Sieva) were grown 2 plants to a pot and selected for treatment at the 1st true leaf stage. Test solutions were sprayed onto the foliage by an automated electrostatic plant sprayer equipped with an atomizing spray nozzle. The plants were dried in the sprayer fume hood and then removed from the sprayer. Each pot was placed into perforated plastic bags with a zip closure. About 10 to 11 armyworm larvae were placed into the bag and the bags zipped closed. […] Mortality and reduced feeding were assessed 4 days after treatment, compared to untreated control plants.

Ceratitis capitata = assay: Mediterranean fruitfly (Ceratitis capitata) microtiter plate insect diet test; conditions: 120 h, egg and larval mortality after 5 days, read-out: mortality in comparison with untreated controls
Method: B.4 Mediterranean Fruitfly (Ceratitis capitata)
For evaluating control of Mediterranean fruitfly (Ceratitis capitata) the test unit consisted of microtiter plates containing an insect diet and 50-80 C. capitata eggs.
as §2, §1

Myzus persicae = assay: Green peach aphid (Myzus persicae) systemic test, artificial diet under membrane; conditions: 72 h, adult aphids, after 3 days, read-out: mortality in comparison with untreated controls
Source text: B.6 Green Peach Aphid (Myzus persicae)
For evaluating control of green peach aphid (Myzus persicae) through systemic means the test unit consisted of 96-well-microtiter plates containing liquid artificial diet under an artificial membrane.
The compounds were formulated using a solution containing 75% v/v water and 25% v/v DMSO. Different concentrations of formulated compounds were pipetted into the aphid diet, using a custom built pipetter, at two replications.
After application, 5-8 adult aphids were placed on the artificial membrane inside the microtiter plate wells. The aphids were then allowed to suck on the treated aphid diet and incubated at about 23±1° C. and about 50±5% relative humidity for 3 days. Aphid mortality and fecundity was then visually assessed.

N#CC1CCN(Cc2cn(-c3ccc(Cl)c(Cl)c3)nc2C=NOCC(F)(F)F)CC1 (mixture of isomers) [IA-2, 1-[[1-(3,4-dichlorophenyl)-3-[(E/Z)-2,2,2-trifluoroethoxyiminomethyl]pyrazol-4-yl]methyl]piperidine-4-carbonitrile]
> 75%: mortality at 500 ppm (Dichromothrips corbetti) | mortality at 2500 ppm (Heliothis virescens) | mortality at 500 ppm (Nephotettix virescens) | mortality at 500 ppm (Aphis craccivora) | mortality at 500 ppm (Plutella xylostella) | mortality at 2500 ppm (Anthonomus grandis) | mortality at 300 ppm (Spodoptera eridania) | mortality at 2500 ppm (Ceratitis capitata)

CON=Cc1nn(-c2ccc(Cl)c(Cl)c2)cc1CN1CCC(C#N)CC1 (mixture of isomers) [IA-1, 1-[[1-(3,4-dichlorophenyl)-3-[(E/Z)-methoxyiminomethyl]pyrazol-4-yl]methyl]piperidine-4-carbonitrile]
> 75%: mortality at 500 ppm (Dichromothrips corbetti) | mortality at 2500 ppm (Heliothis virescens) | mortality at 500 ppm (Nephotettix virescens) | mortality at 500 ppm (Aphis craccivora) | mortality at 500 ppm (Plutella xylostella) | mortality at 2500 ppm (Anthonomus grandis) | mortality at 2500 ppm (Myzus persicae) | mortality at 300 ppm (Spodoptera eridania) | mortality at 2500 ppm (Ceratitis capitata)
